Assay results from patent US12274684B2, “Treatment of vasculopathy with prostacyclin and mesenchymal stem cells” (United Therapeutics Corporation, priority 2013, dated 2025).
“And” between values parts separate entries of the source, which are not always exact repeats. Identical values can stand only once.

System: human bone marrow MSC
Assay: Microarray gene expression analysis of MSC (Illumina Human HT12 Expression BeadChip)
Format: cell-based
Conditions: 24 h
Description: Human bone marrow MSC were expanded and seeded into six (6) T225 flasks using standard growth medium (Table 1). At 95-99% confluency, cells were thoroughly washed with PBS. Three (3) flasks were replenished with basal media containing 250 μg/mL treprostinil, (+)Tre, and the remaining three (3) flasks were replenished with unsupplemented basal media, (−)Tre. After 24 hours of culture, representative images were captured from (+) Tre and (−) Tre cultures. Conditioned media was collected from each replicate, divided into two samples of appropriate volumes, and analyzed separately for: 1) secreted proteins (Myriad RBM InflammationMAP® 1.0) and 2) exosome RNA content. Cells were lysed directly from culture flasks, processed for total RNA isolation, and analyzed for gene expression by microarray (Illumina Human HT12 Expression BeadChip). Microarray gene expression analysis was also performed on MSC from cultures without (−) or with (+) 250 ug/mL treprostinil. Three (3) biological replicates from each condition were analyzed. Of the 77,612 sequences identified among all replicates, only 24,273 were detected above the arbitrary background of 50 counts. 2,984 RNA sequences were unique to Tre(−) cultures, while 1,781 RNA sequences were unique to Tre(+) cultures (panel A). Genes detected in both conditions were further analyzed for differential expression (panel). […] Genes that are expressed only in Tre(−) cultures (that is to say, completely turned off in the Tre(+) cultures) are shown in Table 5.

## CCCCC[C@H](O)CC[C@@H]1[C@H]2Cc3cccc(OCC(=O)O)c3C[C@H]2C[C@H]1O [treprostinil]
250 μg/mL
  ACTN1 (NM_001130005) Fold Change, decrease in Tre(+) vs Tre(−): 12.7 fold
  ANGPT1 (NM_001146) Fold Change, decrease in Tre(+) vs Tre(−): 14.6 fold
  ANK3 (NM_001204403) Fold Change, decrease in Tre(+) vs Tre(−): 14.2 fold
  ANLN (NM_018685) Fold Change, decrease in Tre(+) vs Tre(−): 11.7 fold
  C11orf96 (NM_001145033) Fold Change, increase in Tre(+) vs Tre(−): 12.0 fold
  C13orf33 (NM_032849) Fold Change, increase in Tre(+) vs Tre(−): 21.0 fold
  CD55 (NM_000574) Fold Change, increase in Tre(+) vs Tre(−): 21.5 fold
  CD55 (NM_001114752) Fold Change, increase in Tre(+) vs Tre(−): 13.2 fold
  CELF1 (NM_001172640) Fold Change, decrease in Tre(+) vs Tre(−): 10.9 fold
  COL6A3 (NM_004369) Fold Change, decrease in Tre(+) vs Tre(−): 11.7 fold
  COL21A1 (NM_030820) Fold Change, decrease in Tre(+) vs Tre(−): 27.4 fold
  CPA4 (NM_016352) Fold Change, decrease in Tre(+) vs Tre(−): 12.0 fold
  CTGF (NM_001901) Fold Change, decrease in Tre(+) vs Tre(−): 31.1 fold
  CXCL12 (NM_199168) Fold Change, decrease in Tre(+) vs Tre(−): 15.8 fold
  DDAH1 (NM_001134445) Fold Change, decrease in Tre(+) vs Tre(−): 12.7 fold
  DKFZp547J0510 (CDNA FLJ42650 fis, clone BRACE3027478) Fold Change, decrease in Tre(+) vs Tre(−): 13.0 fold
  DUSP1 (NM_004417) Fold Change, increase in Tre(+) vs Tre(−): 12.9 fold
  EPB41L2 (NM_001199389) Fold Change, decrease in Tre(+) vs Tre(−): 11.2 fold
  GDF5 (NM_000557) Fold Change, decrease in Tre(+) vs Tre(−): 12.5 fold
  GDF15 (NM_004864) Fold Change, increase in Tre(+) vs Tre(−): 32.1 fold
  GPRC5A (NM_003979) Fold Change, increase in Tre(+) vs Tre(−): 13.2 fold
  HSD11B1 (NM_005525) Fold Change, increase in Tre(+) vs Tre(−): 15.4 fold
  IDH1 (NM_005896) Fold Change, increase in Tre(+) vs Tre(−): 13.1 fold
  IER3 (NM_003897) Fold Change, increase in Tre(+) vs Tre(−): 22.5 fold
  IGFBP1 (NM_000596) Fold Change, increase in Tre(+) vs Tre(−): 118.2 fold
  IL6 (NM_000600) Fold Change, increase in Tre(+) vs Tre(−): 109.5 fold
  ISLR (NM_005545) Fold Change, decrease in Tre(+) vs Tre(−): 10.1 fold
  LIPG (NM_006033) Fold Change, increase in Tre(+) vs Tre(−): 13.2 fold
  LMOD1 (NM_012134) Fold Change, decrease in Tre(+) vs Tre(−): 26.4 fold
  MEST (NM_002402) Fold Change, decrease in Tre(+) vs Tre(−): 15.1 fold
  MEST (NM_177525) Fold Change, decrease in Tre(+) vs Tre(−): 11.9 fold
  METTL7A (NM_014033) Fold Change, decrease in Tre(+) vs Tre(−): 11.9 fold
  MXRA5 (NM_015419) Fold Change, decrease in Tre(+) vs Tre(−): 32.6 fold
  NR4A2 (NM_006186) Fold Change, increase in Tre(+) vs Tre(−): 12.5 fold
  OLFML1 (NM_198474) Fold Change, decrease in Tre(+) vs Tre(−): 12.4 fold
  OLFML2B (NM_015441) Fold Change, decrease in Tre(+) vs Tre(−): 20.8 fold
  PALLD (NM_001166109) Fold Change, decrease in Tre(+) vs Tre(−): 13.0 fold
  PALLD (NM_001166110) Fold Change, increase in Tre(+) vs Tre(−): 13.3 fold
  PDE5A (NM_033430) Fold Change, decrease in Tre(+) vs Tre(−): 15.2 fold
  PITPNC1 (NM_181671) Fold Change, increase in Tre(+) vs Tre(−): 16.0 fold
  PLIN2 (NM_001122) Fold Change, increase in Tre(+) vs Tre(−): 47.0 fold
  PRELP (NM_002725) Fold Change, decrease in Tre(+) vs Tre(−): 12.9 fold
  PRKAG2 (NM_024429) Fold Change, increase in Tre(+) vs Tre(−): 78.6 fold
  PTP4A1 (NM_003463) Fold Change, increase in Tre(+) vs Tre(−): 11.8 fold
  RCAN1 (NM_203418) Fold Change, increase in Tre(+) vs Tre(−): 10.9 fold
  RCAN2 (NM_001251974) Fold Change, decrease in Tre(+) vs Tre(−): 11.6 fold
  RND3 (NM_005168) Fold Change, increase in Tre(+) vs Tre(−): 12.9 fold
  S100A4 (NM_002961) Fold Change, decrease in Tre(+) vs Tre(−): 10.5 fold
  SAT1 (transcript variant 2, non-coding RNA) Fold Change, increase in Tre(+) vs Tre(−): 13.5 fold
  SCG2 (NM_003469) Fold Change, increase in Tre(+) vs Tre(−): 21.3 fold
  SIK1 (NM_173354) Fold Change, increase in Tre(+) vs Tre(−): 20.3 fold
  SLC2A12 (NM_145176) Fold Change, decrease in Tre(+) vs Tre(−): 12.2 fold
  SLC3A2 (NM_001013251) Fold Change, increase in Tre(+) vs Tre(−): 10.5 fold
  SLC6A15 (NM_182767) Fold Change, increase in Tre(+) vs Tre(−): 23.7 fold
  SLC14A1 (NM_015865) Fold Change, decrease in Tre(+) vs Tre(−): 18.5 fold
  SREBF1 (NM_004176) Fold Change, increase in Tre(+) vs Tre(−): 11.5 fold
  SYNPO2 (NM_001128933) Fold Change, decrease in Tre(+) vs Tre(−): 24.6 fold
  VEGFA (NM_001025370) Fold Change, increase in Tre(+) vs Tre(−): 13.5 fold
  VEGFA (NM_001171626) Fold Change, increase in Tre(+) vs Tre(−): 11.5 fold
Tre(+) 250 μg/mL
  ANGPTL4 (NM_139314) expression, Rep 1-3: 1570 counts and 2337 counts and 1371 counts
  ANLN (NM_018685) expression, Rep 1-3: 67 counts and 68 counts and 37 counts
